Experimental data from ChEMBL document CHEMBL5584241, “Discovery of new anti-diabetic potential agents based on paracetamol incorporating sulfa-drugs: Design, synthesis, α-amylase, and α-glucosidase inhibitors with molecular docking simulation” (Eur J Med Chem, 2024).

How the values were obtained:
[1] = species on record: Homo sapiens; assay: Inhibition of alpha-glucosidase (unknown origin) at 100 ug/ml using p-nitrophenyl-alpha-D-glucopyranoside as substrate incubated for 15 to 25 mins by spectrophotometric analysis relative to control; settings: dose 100.0 µg/ml, time 15-25 min
[2] = Inhibition of alpha-glucosidase (unknown origin) using p-nitrophenyl-alpha-D-glucopyranoside as substrate incubated for 15 to 25 mins by spectrophotometric analysis; parameters: species or system Homo sapiens
[3] = target: T1, Alpha amylase (Homo sapiens, UniProt P0DUB6); assay: Inhibition of alpha-amylase (unknown origin); assay type: protein assay
T1 sequence (P0DUB6 whole entry): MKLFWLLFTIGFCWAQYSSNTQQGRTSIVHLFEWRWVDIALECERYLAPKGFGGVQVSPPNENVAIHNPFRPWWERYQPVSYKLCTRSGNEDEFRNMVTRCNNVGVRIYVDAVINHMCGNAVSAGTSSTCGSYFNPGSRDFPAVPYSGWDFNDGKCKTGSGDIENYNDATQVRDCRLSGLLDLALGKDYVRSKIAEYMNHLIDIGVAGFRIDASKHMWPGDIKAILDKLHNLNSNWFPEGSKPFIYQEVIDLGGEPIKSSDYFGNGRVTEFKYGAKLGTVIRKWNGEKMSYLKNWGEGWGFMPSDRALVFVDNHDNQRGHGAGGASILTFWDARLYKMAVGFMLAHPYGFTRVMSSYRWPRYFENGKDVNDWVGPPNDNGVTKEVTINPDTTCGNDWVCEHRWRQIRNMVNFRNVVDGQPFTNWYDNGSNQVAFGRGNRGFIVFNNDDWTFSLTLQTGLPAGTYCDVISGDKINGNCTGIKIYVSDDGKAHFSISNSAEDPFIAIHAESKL

[4] = target: Maltase-glucoamylase (Homo sapiens, UniProt O43451); assay: Inhibition of intestinal alpha-glucosidase (unknown origin) using p-nitrophenyl-alpha-D-glucopyranoside as substrate preincubated for 5 mins followed by substrate addition and measured after 5 mins by spectrophotometric analysis
Maltase-glucoamylase, sequence (O43451 whole entry): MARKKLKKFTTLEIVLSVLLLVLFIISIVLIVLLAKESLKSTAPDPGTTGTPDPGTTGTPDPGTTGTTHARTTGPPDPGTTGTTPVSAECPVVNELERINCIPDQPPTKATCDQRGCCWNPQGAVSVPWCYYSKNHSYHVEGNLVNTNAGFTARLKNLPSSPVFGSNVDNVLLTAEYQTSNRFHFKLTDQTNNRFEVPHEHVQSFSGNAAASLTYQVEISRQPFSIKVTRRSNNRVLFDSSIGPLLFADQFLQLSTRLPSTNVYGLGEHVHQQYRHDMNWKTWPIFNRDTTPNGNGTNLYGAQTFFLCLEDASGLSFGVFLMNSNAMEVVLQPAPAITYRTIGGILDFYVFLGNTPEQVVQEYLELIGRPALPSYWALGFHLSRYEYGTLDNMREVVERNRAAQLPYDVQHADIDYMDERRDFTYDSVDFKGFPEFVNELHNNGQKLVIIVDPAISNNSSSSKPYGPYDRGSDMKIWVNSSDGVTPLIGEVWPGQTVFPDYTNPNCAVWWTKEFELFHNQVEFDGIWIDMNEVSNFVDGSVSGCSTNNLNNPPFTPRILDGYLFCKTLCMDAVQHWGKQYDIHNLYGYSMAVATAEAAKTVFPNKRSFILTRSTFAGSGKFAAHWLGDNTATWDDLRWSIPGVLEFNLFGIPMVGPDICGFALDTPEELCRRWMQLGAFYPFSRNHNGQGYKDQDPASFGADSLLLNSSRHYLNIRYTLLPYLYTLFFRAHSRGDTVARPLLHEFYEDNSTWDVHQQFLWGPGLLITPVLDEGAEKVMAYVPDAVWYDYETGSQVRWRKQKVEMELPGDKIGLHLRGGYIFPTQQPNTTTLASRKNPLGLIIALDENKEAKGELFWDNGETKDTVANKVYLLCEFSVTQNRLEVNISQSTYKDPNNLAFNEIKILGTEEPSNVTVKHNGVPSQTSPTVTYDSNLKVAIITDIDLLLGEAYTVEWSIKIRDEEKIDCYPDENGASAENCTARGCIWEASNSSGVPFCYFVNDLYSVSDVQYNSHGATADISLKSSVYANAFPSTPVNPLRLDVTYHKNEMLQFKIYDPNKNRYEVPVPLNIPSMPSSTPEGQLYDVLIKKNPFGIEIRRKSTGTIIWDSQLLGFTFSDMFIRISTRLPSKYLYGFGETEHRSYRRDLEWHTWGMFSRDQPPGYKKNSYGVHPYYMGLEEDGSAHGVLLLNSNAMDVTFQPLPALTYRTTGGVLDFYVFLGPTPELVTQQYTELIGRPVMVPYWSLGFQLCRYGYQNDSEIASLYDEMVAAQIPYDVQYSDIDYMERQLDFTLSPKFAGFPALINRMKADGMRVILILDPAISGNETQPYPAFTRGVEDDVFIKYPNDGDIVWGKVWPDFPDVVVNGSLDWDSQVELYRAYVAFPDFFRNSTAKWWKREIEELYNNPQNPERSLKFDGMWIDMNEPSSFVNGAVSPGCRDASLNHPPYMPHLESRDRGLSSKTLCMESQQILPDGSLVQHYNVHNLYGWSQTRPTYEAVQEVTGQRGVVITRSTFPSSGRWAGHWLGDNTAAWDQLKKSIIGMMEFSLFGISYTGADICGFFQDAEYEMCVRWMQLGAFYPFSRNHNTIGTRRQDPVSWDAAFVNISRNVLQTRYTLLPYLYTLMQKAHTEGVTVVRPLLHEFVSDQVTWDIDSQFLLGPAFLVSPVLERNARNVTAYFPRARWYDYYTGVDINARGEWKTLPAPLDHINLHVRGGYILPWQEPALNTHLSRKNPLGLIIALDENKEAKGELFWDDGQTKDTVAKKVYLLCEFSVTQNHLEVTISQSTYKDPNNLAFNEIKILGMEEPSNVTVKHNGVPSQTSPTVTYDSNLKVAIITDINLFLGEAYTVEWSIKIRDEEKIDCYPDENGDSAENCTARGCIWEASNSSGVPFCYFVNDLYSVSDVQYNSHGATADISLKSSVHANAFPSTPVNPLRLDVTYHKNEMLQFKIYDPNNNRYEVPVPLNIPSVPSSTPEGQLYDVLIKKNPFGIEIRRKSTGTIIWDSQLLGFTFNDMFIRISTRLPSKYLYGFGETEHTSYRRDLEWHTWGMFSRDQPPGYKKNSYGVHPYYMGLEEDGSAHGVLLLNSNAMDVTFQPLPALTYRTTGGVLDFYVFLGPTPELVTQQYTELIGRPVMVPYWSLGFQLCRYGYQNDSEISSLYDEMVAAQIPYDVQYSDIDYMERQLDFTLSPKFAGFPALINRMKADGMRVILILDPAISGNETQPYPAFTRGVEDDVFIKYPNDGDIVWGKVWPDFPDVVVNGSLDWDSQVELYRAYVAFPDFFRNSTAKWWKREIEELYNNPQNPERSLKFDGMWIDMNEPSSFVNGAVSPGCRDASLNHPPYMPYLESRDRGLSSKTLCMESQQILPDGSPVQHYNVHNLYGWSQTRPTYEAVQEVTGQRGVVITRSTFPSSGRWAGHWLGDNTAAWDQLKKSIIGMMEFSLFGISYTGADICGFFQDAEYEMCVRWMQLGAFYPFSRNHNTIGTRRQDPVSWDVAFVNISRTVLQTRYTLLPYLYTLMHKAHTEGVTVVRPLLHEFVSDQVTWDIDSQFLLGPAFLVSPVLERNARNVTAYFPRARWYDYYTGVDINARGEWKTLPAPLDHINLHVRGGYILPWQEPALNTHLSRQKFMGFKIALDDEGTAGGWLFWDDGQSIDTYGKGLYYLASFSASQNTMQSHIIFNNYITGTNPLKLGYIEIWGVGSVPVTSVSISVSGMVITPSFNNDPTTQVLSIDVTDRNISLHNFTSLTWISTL

[5] = Inhibition of alpha-glucosidase (unknown origin); parameters: species or system Homo sapiens

Row | inhibition [1] [%] | IC50 [2] [µM] | IC50 [3] [µM] | IC50 [4] [µM] | IC50 [5] [µM] | SMILES
1 | 92.6 | 18.3 |  |  |  | CC(=O)Nc1ccc(O)c(/N=N/c2ccc(S(=O)(=O)Nc3cc(C)on3)cc2)c1
2 | 95.6 | 2.95 |  |  |  | CC(=O)Nc1ccc(O)c(/N=N/c2ccc(S(=O)(=O)Nc3noc(C)c3C)cc2)c1
3 | 95.8 | 1.24 |  |  |  | C[C@H]1O[C@H](O[C@H]2[C@H](O)[C@@H](O)[C@@H](O[C@H]3[C@H](O)[C@@H](O)C(O)O[C@@H]3CO)O[C@@H]2CO)[C@H](O)[C@@H](O)[C@@H]1N[C@H]1C=C(CO)[C@@H](O)[C@H](O)[C@H]1O (stereo partly specified) [ACARBOSE]
4 | 95.7 | 1.39 |  |  |  | CC(=O)Nc1ccc(O)c(/N=N/c2ccc(S(=O)(=O)Nc3ncccn3)cc2)c1
5 | 94.1 | 5.13 |  |  |  | CC(=O)Nc1ccc(O)c(/N=N/c2ccc(S(=O)(=O)Nc3nc(C)cc(C)n3)cc2)c1
6 | 94.2 | 19.1 |  |  |  | CC(=O)Nc1ccc(O)c(/N=N/c2ccc(S(=O)(=O)Nc3ccc(Cl)nn3)cc2)c1
7 | 93.6 | 11 |  |  |  | CC(=O)Nc1ccc(O)c(/N=N/c2ccc(S(N)(=O)=O)cc2)c1
8 | 93.4 | 44.1 |  |  |  | CC(=O)Nc1ccc(O)c(/N=N/c2ccc(S(=O)(=O)Nc3nccs3)cc2)c1
9 |  |  | 2.4 |  |  | COc1ccccc1S(=O)(=O)Nc1nnc(-c2ccc([N+](=O)[O-])cc2)s1
10 | 91 | 96.5 |  |  |  | CC(=O)Nc1ccc(O)c(/N=N/c2ccc(S(=O)(=O)NC(=N)N)cc2)c1
11 |  |  |  | 1.6 |  | O=S(=O)(NCCc1c[nH]c2ccccc12)c1cc(F)ccc1Cl
12 |  |  |  |  | 5.5 | O=[N+]([O-])c1ccc(-c2nnc(NS(=O)(=O)c3ccc(Cl)c(Cl)c3)s2)cc1
